In publication PMC7143940, “Enhancing the Immune Response of a Nicotine Vaccine with Synthetic Small “Non-Natural” Peptides” (Molecules, 2020):
“Also recorded” adds a separate entry of the source. Where a SMILES comes first, the peptide text is derived from it.

Test: Peptide stability in human plasma (RP-HPLC)
Assay type: in vitro ADME
Conditions: human plasma (EDTA blood, healthy volunteers), 37 °C, various time points, RP-HPLC with 0.1% trifluoroacetic acid, absorbance at 210 nm, average ± SEM of three separate experiments; result in words
Description: Figure 1 Peptide stability in plasma. Pentapeptide 1 was incubated in human plasma at 37 °C. Levels of the peptide remaining after various time points were analyzed by RP-HPLC in the presence of 0.1% trifluoroacetic acid and detected by absorbance at 210 nm. Peptide amounts were calculated relative to quantities determined at time point zero, and data shown are the average ± SEM of three separate experiments.
Blood was collected from healthy volunteers in EDTA blood collection tubes (BD Vacutainer, Mississauga, ON, Canada). Plasma was collected after centrifugation at 900× g and 20 °C for 10 min with decreased deceleration, aliquoted, and stored at −80 °C. All subjects gave their informed consent for inclusion before they participated in the study. The study was conducted in accordance with the Declaration of Helsinki, with all protocols approved by the Research Ethics Board at Health Sciences North Research Institute (Protocol # 18-061).
The stability of pentapeptide 1 in human plasma was analyzed using previously published methods.

NCCCC[C@H](N)C(=O)N[C@@H](Cc1c[nH]c2ccccc12)C(=O)N[C@@H](CS)C(=O)N[C@@H](CCC(=O)O)C(=O)N[C@@H](CS)C(=O)O [Peptide 1, KWCEC] (H-KWCEC-OH)
Plasma stability: peptide remaining relative to time point zero: No statistical difference was found between the two time points; also recorded: not recognized and cleaved by proteolytic enzymes
